Patent US20050208496A1, “Methods of testing for bronchial asthma or chronic obstructive pulmonary disease” (Genox Research, Inc., priority 2002, published 2005)

System: respiratory epithelial cells

IL-13: human IL-13 (Peprotech, Inc.) added to the medium at 50 ng/mL to stimulate respiratory epithelial cells
IFIT4 (38584_at) expression, fold change upon IL-13 stimulation (lot 2, Day 3, AI method): 10.3 fold | IFITM1 (675_at) expression, fold change upon IL-13 stimulation (lot 2, Day 3, AI method): 3.6 fold | IL13RA2 (1016_s_at) expression fold change upon IL-13 stimulation (lot 2, Day 3, AI method): 15.9 fold | IL19 (47855_at) expression fold change (lot 2, Day 3, AI method): 10.9 fold | ILIRL1 (40322_at) expression, fold change upon IL-13 stimulation (lot 2, Day 3, AI method): 9.8 fold | IRF7 (36412_s_at) expression fold change (lot 2, Day 3, AI method): 3.4 fold | ISG15 (1107_s_at) expression, fold change upon IL-13 stimulation (lot 2, Day 3, AI method): 8.8 fold | ISG15 (38432_at) expression, fold change upon IL-13 stimulation (lot 2, Day 3, AI method): 12.6 fold | ISG20 (33304_at) expression, fold change upon IL-13 stimulation (lot 2, Day 3, AI method): 3.3 fold | KIAA0537 (33787_at) expression, fold change upon IL-13 stimulation (lot 2, Day 3, AI method): 4.8 fold | KIAA1199 (36070_at) expression, fold change upon IL-13 stimulation (lot 2, Day 3, AI method): 2.7 fold | KIAA1268 (57050_at) expression fold change (lot 2, Day 3, AI method): 2.2 fold | KIAAI268 (59516_at) expression fold change (lot 2, Day 3, AI method): 2.2 fold | KRT16 (601_s_at) expression fold change (lot 2, Day 3, AI method): 5.2 fold | LAMP3 (37168_at) expression, fold change upon IL-13 stimulation (lot 2, Day 3, AI method): 5.4 fold | LOC57118 (51085_at) expression fold change (lot 2, Day 3, AI method): 2.7 fold | LOC64116 (40456_at) expression, fold change upon IL-13 stimulation (lot 2, Day 3, AI method): 5.6 fold | MDA5 (51920_at) expression fold change (lot 2, Day 3, AI method): 3.3 fold | MFHAS1 (50388_at) expression fold change (lot 2, Day 3, AI method): 2.4 fold | MICB (35937_at) expression, fold change upon IL-13 stimulation (lot 2, Day 3, AI method): 2.7 fold | MKP-L (38272_at) expression, fold change upon IL-13 stimulation (lot 2, Day 3, AI method): 2.5 fold | MMP7 (668_s_at) expression, fold change upon IL-13 stimulation (lot 2, Day 3, AI method): 3.4 fold | MP1 (34839_at) expression, fold change upon IL-13 stimulation (lot 2, Day 3, AI method): 2 fold | MX2 (879_at) expression fold change (lot 2, Day 3, AI method): 6.9 fold | MXI (37014_at) expression fold change (lot 2, Day 3, AI method): 11.4 fold | NCF2 (41038_at) expression fold change (lot 2, Day 3, AI method): 4.4 fold | NK4 (39119_s_at) expression fold change upon IL-13 stimulation (lot 2, Day 3, AI method): 4.1 fold | NOS2A (1948_f_at) expression fold change upon IL-13 stimulation (lot 2, Day 3, AI method): 14.5 fold | NOS2A (48918_at) expression fold change (lot 2, Day 3, AI method): 25.4 fold | OAF (39695_at) expression, fold change upon IL-13 stimulation (lot 2, Day 3, AI method): 2.7 fold | OAS1 (38388_at) expression fold change upon IL-13 stimulation (lot 2, Day 3, AI method): 6.5 fold | OAS1 (38389_at) expression fold change upon IL-13 stimulation (lot 2, Day 3, AI method): 4.7 fold | OAS2 (39263_at) expression fold change upon IL-13 stimulation (lot 2, Day 3, AI method): 3.5 fold | OSF-2 (1451_s_at) expression fold change upon IL-13 stimulation (lot 2, Day 3, AI method): 86.8 fold | PKD2 (38120_at) expression, fold change upon IL-13 stimulation (lot 2, Day 3, AI method): 2.4 fold | PLOD2 (34795_at) expression fold change upon IL-13 stimulation (lot 2, Day 3, AI method): 2 fold | PLS1 (39951_at) expression fold change (lot 2, Day 3, AI method): 3.1 fold | PLSCR1 (32775_r_at) expression fold change upon IL-13 stimulation (lot 2, Day 3, AI method): 3 fold | PMCH (32005_at) expression fold change (lot 2, Day 3, AI method): 12.2 fold | PSMB9 (38287_at) expression fold change upon IL-13 stimulation (lot 2, Day 3, AI method): 2.7 fold | PVRL2 (50320_g_at) expression fold change (lot 2, Day 3, AI method): 2.2 fold | RASGRP1 (33291_at) expression fold change (lot 2, Day 3, AI method): 3.7 fold | RIG-1 (59215_at) expression fold change (lot 2, Day 3, AI method): 11.8 fold | SAMHD1 (34714_at) expression, fold change upon IL-13 stimulation (lot 2, Day 3, AI method): 3.7 fold | SCYB10 (431_at) expression fold change upon IL-13 stimulation (lot 2, Day 3, AI method): 4.9 fold | SCYB11 (35061_at) expression fold change upon IL-13 stimulation (lot 2, Day 3, AI method): 6.8 fold | SECTM1 (41045_at) expression, fold change upon IL-13 stimulation (lot 2, Day 3, AI method): 6.8 fold | SERPINB2 (37185_at) expression fold change (lot 2, Day 3, AI method): 4.1 fold | SERPINB4 (1549_s_at) expression fold change (lot 2, Day 3, AI method): 9.6 fold | SERPINB6 (34789_at) expression fold change (lot 2, Day 3, AI method): 2.1 fold | SIAT1 (41352_at) expression fold change upon IL-13 stimulation (lot 2, Day 3, AI method): 3.9 fold | SLC26A4, pendrin (36376_at) expression fold change (lot 2, Day 3, AI method): 118.3 fold | SSI-1 (41592_at) expression, fold change upon IL-13 stimulation (lot 2, Day 3, AI method): 15.5 fold | STAT1 (32860_g_at) expression fold change (lot 2, Day 3, AI method): 2.1 fold | STAT1 (33338_at) expression fold change (lot 2, Day 3, AI method): 5.8 fold | STAT1 (33339_g_at) expression fold change (lot 2, Day 3, AI method): 3.2 fold | TGFB2 (1262_s_at) expression fold change upon IL-13 stimulation (lot 2, Day 3, AI method): 4.1 fold | TGM2 (38404_at) expression fold change upon IL-13 stimulation (lot 2, Day 3, AI method): 2.1 fold | THBS1 (115_at) expression fold change upon IL-13 stimulation (lot 2, Day 3, AI method): 4.1 fold | TSPAN-3 (38612_at) expression, fold change upon IL-13 stimulation (lot 2, Day 3, AI method): 2.5 fold | UBE2L6 (40505_at) expression fold change upon IL-13 stimulation (lot 2, Day 3, AI method): 2.1 fold | UFD1L (811_at) expression, fold change upon IL-13 stimulation (lot 2, Day 3, AI method): 3.1 fold | WARS (38121_at) expression fold change upon IL-13 stimulation (lot 2, Day 3, AI method): 8.7 fold | cig5 (38549_at) expression, fold change upon IL-13 stimulation (lot 2, Day 3, AI method): 14.3 fold | diubiquitin (39959_at) expression, fold change upon IL-13 stimulation (lot 2, Day 3, AI method): 16.3 fold | AA167714 (54897_at) expression fold change (lot 2, Day 7, AI method): 4.7 fold | AA420479 (52539_at) expression fold change (lot 2, Day 7, AI method): 10.1 fold | AA541787 (52622_at) expression fold change (lot 2, Day 7, AI method): 3.9 fold | AA582926 (52307_at) expression fold change (lot 2, Day 7, AI method): 3.7 fold | AA604375 (44127_at) expression fold change (lot 2, Day 7, AI method): 3.9 fold | ACP5 (677_s_at) expression, fold change upon IL-13 stimulation (lot 2, Day 7, AI method): 2.8 fold | ADAM8 (40712_at) expression, fold change upon IL-13 stimulation (lot 2, Day 7, AI method): 4.5 fold | ADAM28 (35479_at) expression, fold change upon IL-13 stimulation (lot 2, Day 7, AI method): 3.7 fold | AI565105 (54886_at) expression fold change (lot 2, Day 7, AI method): 2.4 fold | AI659927 (54033_at) expression fold change (lot 2, Day 7, AI method): 3 fold | AI700705 (46658_at) expression fold change (lot 2, Day 7, AI method): 2.5 fold | AI821796 (57694_at) expression fold change (lot 2, Day 7, AI method): 2.5 fold | AI989346 (52327_s_at) expression fold change (lot 2, Day 7, AI method): 2.5 fold | AKAP2 (35985_at) expression, fold change upon IL-13 stimulation (lot 2, Day 7, AI method): 7.6 fold | AKAP2 (48035_at) expression fold change (lot 2, Day 7, AI method): 6.4 fold | AKAP10 (36632_at) expression, fold change upon IL-13 stimulation (lot 2, Day 7, AI method): 2.4 fold | ALOX15 (34636_at) expression, fold change upon IL-13 stimulation (lot 2, Day 7, AI method): 322.1 fold | ARHE (35803_at) expression fold change upon IL-13 stimulation (lot 2, Day 7, AI method): 2 fold | ARL7 (57151_at) expression fold change (lot 2, Day 7, AI method): 5.3 fold | AW019985 (48826_s_at) expression fold change (lot 2, Day 7, AI method): 14.7 fold | AXL (38433_at) expression, fold change upon IL-13 stimulation (lot 2, Day 7, AI method): 7.5 fold | BAL (52167_at) expression fold change (lot 2, Day 7, AI method): 1.6 fold | BIG2 (34484_at) expression, fold change upon IL-13 stimulation (lot 2, Day 7, AI method): 2.9 fold | BST2 (39061_at) expression, fold change upon IL-13 stimulation (lot 2, Day 7, AI method): 3.1 fold | C1S (40496_at) expression, fold change upon IL-13 stimulation (lot 2, Day 7, AI method): 4.1 fold | C21orf11 (58957_at) expression fold change (lot 2, Day 7, AI method): 2.4 fold | CDH6 (1620_at) expression fold change upon IL-13 stimulation (lot 2, Day 7, AI method): 12.1 fold | CDH6 (57421_at) expression fold change (lot 2, Day 7, AI method): 3.7 fold | CDH26 (46916_at) expression fold change (lot 2, Day 7, AI method): 5.4 fold | CH25H (32363_at) expression, fold change upon IL-13 stimulation (lot 2, Day 7, AI method): 12 fold | CLDN1 (46260_at) expression fold change (lot 2, Day 7, AI method): 3.6 fold | CLDN4 (35276_at) expression, fold change upon IL-13 stimulation (lot 2, Day 7, AI method): 23 fold | CLDN5 (38995_at) expression, fold change upon IL-13 stimulation (lot 2, Day 7, AI method): 8.3 fold | CTSC (133_at) expression, fold change upon IL-13 stimulation (lot 2, Day 7, AI method): 2.2 fold | CXCL16 (44095_at) expression fold change (lot 2, Day 7, AI method): 2 fold | DBCCR1 (40292_at) expression, fold change upon IL-13 stimulation (lot 2, Day 7, AI method): 19.3 fold | DD96 (31610_at) expression, fold change upon IL-13 stimulation (lot 2, Day 7, AI method): 2.5 fold | DDIT3 (39420_at) expression, fold change upon IL-13 stimulation (lot 2, Day 7, AI method): 29.5 fold | DKFZP564O0823 (41402_at) expression, fold change upon IL-13 stimulation (lot 2, Day 7, AI method): 4.6 fold | DKFZP566J091 (57197_at) expression fold change (lot 2, Day 7, AI method): 15.2 fold | DKFZp564N1116 (37784_at) expression, fold change upon IL-13 stimulation (lot 2, Day 7, AI method): 7.8 fold
